Measured values from patent JP2012067022A, “ホスホマイシンを有効成分とする魚類のエドワジエラ症治療剤” (Meiji Seika Kaisha Ltd, priority 2010, dated 2012).

Columns and labels:
[1] = tested on: Edwardsiella tarda E08-18 strain (エドワジエラ・タルダ E08−18株); assay: Test Example 2: artificial infection treatment test (1) in red sea bream; format: in vivo; settings: 40 mg (potency)/kg oral in feed, 6 days
[2] = tested on: Edwardsiella tarda E08-18 strain (エドワジエラ・タルダ E08−18株); assay: Test Example 3: artificial infection treatment test (2) in red sea bream; format: in vivo; settings: for mortality rate: red sea bream juveniles (27 g), 4.6×10^6 CFU/mL per fish i.p., to day 14 after infection, untreated control 95%
[3] = tested on: Edwardsiella tarda (エドワジエラ・タルダ); assay: Test Example 1: in vitro antibacterial activity (MIC, Japanese Society of Chemotherapy method); format: cell-based; settings: oxytetracycline hydrochloride-resistant strains; result in words

C[C@@H]1O[C@@H]1P(=O)(O)O [ホスホマイシン・カルシウム, カルシウム塩]
mortality rate ([1]; red sea bream juveniles (29 g), 3.6×10^6 CFU/mL per fish i.p., to day 14 after infection, untreated control 95%): 10%
mortality rate ([2]; 40 mg (potency)/kg oral in feed, 6 days): 25%

C[C@@H]1O[C@@H]1P(=O)(O)O [ホスホマイシン]
recovery of feeding activity ([1]; red sea bream juveniles, after bacterial inoculation): 摂餌活性の回復が早まる
recovery of feeding activity ([2]; red sea bream juveniles, 40 mg (potency)/kg oral in feed, 6 days, compared with oxytetracycline hydrochloride and untreated groups): 塩酸オキシテトラサイクリンや無投薬の群よりも摂餌活性の回復が早まる
antibacterial activity [3]: 強い抗菌活性を示す

CN(C)[C@@H]1C(=O)C(C(N)=O)=C(O)[C@@]2(O)C(=O)C3=C(O)c4c(O)cccc4[C@@](C)(O)[C@H]3[C@H](O)[C@@H]12.Cl [塩酸オキシテトラサイクリン]
mortality rate ([2]; 50 mg (potency)/kg oral in feed, 7 days): 100%
